Laboratory results taken from ChEMBL document CHEMBL6121048 (J Med Chem, 2025).
Active and inactive are the calls of the source. The rule behind the calls is not given here.

How the values were obtained:
[1] = target: Ionotropic glutamate receptor NMDA 1/2D (Rattus norvegicus, UniProt P35439+Q62645); assay: Partial agonist activity at recombinant rat GluN1/GluN2D NMDA receptor expressed in xenopus laevis oocytes in presence of L-glutamate by two-electrode voltage-clamp method; type: cell-based
[2] = target: Glutamate NMDA receptor; Grin1/Grin2c (Rattus norvegicus, UniProt P35439+Q00961); assay: Agonist activity at recombinant rat GluN1/GluN2C NMDA receptor expressed in xenopus laevis oocytes in presence of L-glutamate by two-electrode voltage-clamp method; type: cell-based
[3] = target: Glutamate NMDA receptor; Grin1/Grin2c (Rattus norvegicus) (UniProt P35439+Q00961); assay: Agonist activity at recombinant rat GluN1/GluN2C NMDA receptor expressed in xenopus laevis oocytes by measuring maximum response by two-electrode voltage-clamp method relative to glycine; type: cell-based; conditions: filed as agonist
[4] = target: Glutamate NMDA receptor; Grin1/Grin2a (Rattus norvegicus, UniProt P35439+Q00959); assay: Partial agonist activity at recombinant rat GluN1/GluN2A NMDA receptor expressed in xenopus laevis oocytes in presence of L-glutamate by two-electrode voltage-clamp method; type: cell-based
[5] = target: T1, Glutamate NMDA receptor; Grin1/Grin2b (Rattus norvegicus) (UniProt P35439+Q00960); assay: Agonist activity at recombinant rat GluN1/GluN2B NMDA receptor expressed in xenopus laevis oocytes at 30 uM by two-electrode voltage-clamp method relative to control; type: cell-based
[6] = target: Glutamate NMDA receptor; Grin1/Grin2a (Rattus norvegicus) (UniProt P35439+Q00959); assay: Partial agonist activity at recombinant rat GluN1/GluN2A NMDA receptor expressed in xenopus laevis oocytes by measuring maximum response by two-electrode voltage-clamp method relative to glycine; type: cell-based; conditions: filed as partial agonist
[7] = target: Ionotropic glutamate receptor NMDA 1/2D (Rattus norvegicus) (UniProt P35439+Q62645); assay: Partial agonist activity at recombinant rat GluN1/GluN2D NMDA receptor expressed in xenopus laevis oocytes by measuring maximum response by two-electrode voltage-clamp method relative to glycine; type: cell-based
[8] = Apparent permeability across basolateral to apical side in dog MDR1-deficient MDCK cells expressing human MDR1 at 3 uM by LC-MS/MS analysis; type: ADME, cell-based, Canis lupus familiaris
[9] = Metabolic stability in human liver microsomes assessed as half life at 1 uM incubated for 5 mins in presence of NADPH by LC-MS/MS analysis; type: ADME, Microsome
[10] = Efflux ratio of apparent permeability across basolateral to apical over apical to basolateral side in dog MDR1-deficient MDCK cells expressing human MDR1 at 3 uM by LC-MS/MS analysis; type: ADME, cell-based, Canis lupus familiaris
[11] = Apparent permeability across apical to basolateral side in dog MDR1-deficient MDCK cells expressing human MDR1 at 3 uM by LC-MS/MS analysis; type: ADME, cell-based, Canis lupus familiaris
[12] = organism: Rattus norvegicus; assay: Agonist activity at recombinant rat GluN1 V689I mutant receptor expressed in xenopus laevis oocytes assessed as fold reduction by two-electrode voltage-clamp method; type: cell-based; conditions: filed as agonist
[13] = organism: Rattus norvegicus; assay: Agonist activity at recombinant rat GluN1 F754L mutant receptor expressed in xenopus laevis oocytes in presence of L-glutamate by two-electrode voltage-clamp method; type: cell-based
[14] = target: T1, Glutamate NMDA receptor; Grin1/Grin2b (Rattus norvegicus); assay: Agonist activity at recombinant rat GluN1/GluN2B NMDA receptor expressed in xenopus laevis oocytes at 3 uM by two-electrode voltage-clamp method relative to control; type: cell-based
[15] = organism: Rattus norvegicus; assay: Agonist activity at recombinant rat GluN1 Y692L mutant receptor expressed in xenopus laevis oocytes in presence of L-glutamate by two-electrode voltage-clamp method; type: cell-based
[16] = Selectivity ratio of EC50 for wild type GluN1/2C receptor to EC50 for GluN1 S688A/2C mutant receptor expressed in xenopus laevis oocytes; type: cell-based
[17] = Selectivity ratio of EC50 for wild type GluN1/GluN2C receptor to EC50 for GluN1 V689I/2C receptor expressed in xenopus laevis oocytes; type: cell-based
[18] = target: T1, Glutamate NMDA receptor; Grin1/Grin2b (Rattus norvegicus); assay: Agonist activity at recombinant rat GluN1/GluN2B NMDA receptor expressed in xenopus laevis oocytes at 1 uM by two-electrode voltage-clamp method relative to control; type: cell-based
[19] = organism: Rattus norvegicus; assay: Selectivity ratio of EC50 for partial agonist activity at recombinant rat GluN1/GluN2D NMDA receptor expressed in xenopus laevis oocytes to EC50 for agonist activity at recombinant rat GluN1/GluN2C NMDA receptor expressed in xenopus laevis oocytes; type: cell-based
[20] = organism: Rattus norvegicus; assay: Selectivity ratio of EC50 for partial agonist activity at recombinant rat GluN1/GluN2A NMDA receptor expressed in xenopus laevis oocytes to EC50 for agonist activity at recombinant rat GluN1/GluN2C NMDA receptor expressed in xenopus laevis oocytes; type: cell-based
[21] = target: T1, Glutamate NMDA receptor; Grin1/Grin2b (Rattus norvegicus); assay: Agonist activity at recombinant rat GluN1/GluN2B NMDA receptor expressed in xenopus laevis oocytes at 10 uM by two-electrode voltage-clamp method relative to control; type: cell-based

SMILES | EC50 [1] [nM] | EC50 [2] [nM] | Rmax [3] [%] | EC50 [4] [nM] | Activity [5] [%] | Rmax [6] [%] | Rmax [7] [%] | Papp [8] [×10⁻⁶ cm/s] | t1/2 [9] [h] | Ratio [10] | Papp [11] [×10⁻⁶ cm/s] | other results
N[C@H](CNC(=O)c1ccc(-c2ccccc2C(F)(F)F)s1)C(=O)O | 200 | 88 | 158 | 150 | < 5 | 62 | 24 | – | – | – | – | –
CC(C)OC(=O)[C@H](N)CNC(=O)c1ccc(-c2ccccc2Br)s1 | – | – | – | – | – | – | – | 89.6 | 0.367 | 0.83 | 107.4 | –
N[C@H](CNC(=O)c1ccc(-c2cccc(F)c2F)s1)C(=O)O | 3520 | 930 | 321 | 1990 | < 5 | 62 | – | – | – | – | – | Rmax ([7]; filed as partial agonist): 41%
COc1ccc(F)cc1-c1ccc(C(=O)NC[C@@H](N)C(=O)O)s1 | 1450 | 740 | 306 | 1070 | < 5 | 83 | 23 | – | – | – | – | –
CCc1ccccc1-c1ccc(C(=O)NC[C@@H](N)C(=O)O)s1 | 81 | 41 | 234 | 57 | – | 77 | 32 | 1.4 | > 2 | – | 2 | fold change (FC) [12]: 1.3; Activity [13]: inactive; Activity [14]: < 5%; Activity [15]: inactive
CCc1ccccc1-c1cccc2[nH]c(C(=O)NC[C@@H](N)C(=O)O)cc12 | – | – | – | – | – | – | – | 7.4 | > 2 | 9.2 | 0.81 | –
N[C@H](CNC(=O)c1ccc(-c2ccccc2Br)s1)C(=O)O | 72 | 38 | 156 | 74 | < 5 | 80 | 28 | 0.88 | > 2 | 1.6 | 0.53 | Ratio EC50 [16]: 1.4; fold change (FC) [12]: 1.5; Activity [13]: inactive; Ratio EC50 [17]: 2.9; Activity [15]: inactive
COc1ccccc1-c1ccc(C(=O)NC[C@@H](N)C(=O)O)s1 | 1290 | 660 | 293 | 1280 | < 5 | 90 | 24 | – | – | – | – | –
N[C@H](CO)C(=O)O | – | – | 116 | – | – | 102 | – | – | – | – | – | Rmax ([7]; filed as partial agonist): 93%
N[C@H](CNC(=O)c1cc(Br)c(-c2ccccc2Br)s1)C(=O)O | 16 | 3 | 430 | 18 | – | 58 | 30 | 7.4 | > 2 | 8.2 | 0.9 | Activity [18]: < 5%; Ratio EC50 [19]: 5.5; Ratio EC50 [20]: 6.2
N[C@H](CNC(=O)c1ccc(-c2cccc3ccccc23)s1)C(=O)O | 303 | 133 | 116 | 102 | – | 59 | 34 | – | – | – | – | Activity [14]: < 5%
N[C@H](CNC(=O)c1ccc(-c2ccccc2F)s1)C(=O)O | 980 | 230 | 410 | 880 | < 5 | 63 | – | – | – | – | – | Rmax ([7]; filed as partial agonist): 45%
COc1cccc(F)c1-c1ccc(C(=O)NC[C@@H](N)C(=O)O)s1 | 180 | 110 | 179 | 290 | – | 67 | 29 | – | – | – | – | Activity [21]: < 5%
N[C@H](CNC(=O)c1ccc(-c2cccc(F)c2)s1)C(=O)O | 5580 | 1880 | 390 | 3730 | < 5 | 61 | – | – | – | – | – | Rmax ([7]; filed as partial agonist): 42%
N[C@H](CNC(=O)c1cc(Br)c(-c2ccccc2F)s1)C(=O)O | 240 | 34 | 864 | 210 | – | 54 | – | 2.2 | > 2 | 1.4 | 1.6 | Ratio EC50 [16]: 1.9; fold change (FC) [12]: 2; Activity [21]: < 5%; Activity ([13]; filed as agonist): Active; Compound Shows Reduced Efficacy Compared To Wild-Type Glun1/2C; Ratio EC50 [19]: 7.1; Ratio EC50 [17]: 2.6; Ratio EC50 [20]: 6.2; Activity ([15]; filed as agonist): Active; Compound Shows Reduced Efficacy Compared To Wild-Type Glun1/2C; Rmax ([7]; filed as partial agonist): 44%
Cc1cc(C(=O)NC[C@@H](N)C(=O)O)sc1-c1ccccc1Br | 120 | 25 | 267 | 51 | – | 75 | 30 | – | – | – | – | Activity [18]: < 5%
COC(=O)c1ccccc1-c1c2ccc(=N)cc-2oc2cc(N)ccc12.Cl [RHODAMINE123] | – | – | – | – | – | – | – | 5.7 | – | 7.5 | 0.77 | –
